The target in one test is T1, p-Akt1 in LNCaP cells (Homo sapiens, UniProt P31749).
T1 construct: SureFire assays to detect cellular p-Akt1, p-Akt2 and p-Akt3 levels in WM115 cells (Akt2/3) and LNCaP cells (Akt1); endogenous in cells; host or cells: LNCaP (ECACC 89110211)
The experiment in a line: Phospho-Akt cellular SureFire assay, p-Akt1 in LNCaP cells. It counts as cell-based. The conditions noted are these: read-out: Biological Assay 2 IC50 (nM) Akt1 LNCaP. The text has this: (§1) Biological Assay 2: Phospho-Akt (p-Akt) Cellular SureFire Assays
(§2) The following describes SureFire assays to detect cellular p-Akt1, p-Akt2 and p-Akt3 levels in WM115 cells (Akt2/3) and LNCaP cells (Akt1). In the case of Akt2 and Akt3, Streptavidin-coated donor beads capture a biotinylated anti-mouse antibody that in turn recognises a mouse total Akt antibody which is specific to each isoform. The protein A-conjugated acceptor beads capture an antibody that recognises the phosphoprotein. Similarly in the Akt1 kit, the donor and acceptor beads are used to capture each antibody pair consisting of an antibody that specifically recognises Akt1 as well as an antibody that recognises the phosphoprotein. In each case, close proximity of the beads allows energy transfer from donor to acceptor.
AlphaScreen® SureFire™ Phospho-Akt1 (pThr308) Kit from Perkin Elmer (TGRA2S10K)
LNCaP cells (ECACC, 89110211) cultured in RPMI-1640 culture media (Fisher, 10665193) supplemented with 2 mM L-glutamine, 1% sodium pyruvate and 10% FBS
(§3) Cell treatment: 1×10^5 WM115 cells or 5×10^4 LNCaP cells were seeded into each well of a 96 well poly-D-Lysine coated tissue culture plate and incubated overnight at 37° C.+5% CO2. Media was removed from cells and replaced with assay buffer consisting of the full culture media described above but with 0.1% FBS instead of 10% FBS. Only WM115 cells were stimulated at 37° C.+5% CO2 for 10 min with 5 μL insulin at a final concentration of 100 nM. Cells were incubated with 5 μL of test compound at a final DMSO concentration of 0.3% for 15 min at 37° C.+5% CO2. Cell lysis was carried out according to kit instructions.
(§4) Assay format (performed in subdued lighting): 4 μL cell lysate and 5 μL reaction buffer were incubated together in the dark at room temperature for 2 h. Reaction buffer was supplemented with a 1/5 dilution of activation buffer, a 1/50 dilution of acceptor beads and in the case of the custom kits, antibodies were added at dilutions of 1/20,000 for Akt2 and 1/2,000 for Akt3.
(§5) 2 μL dilution buffer, supplemented with a 1/20 dilution of donor beads was added to each well and incubated for a further 2 h. Plates were read with the EnVision® Multilabel Plate Reader and using the AlphaScreen settings. Compound IC50 was determined using a 4-parameter equation.

For a further test, the target named is T2, p-Akt2 in WM115 cells (Homo sapiens, UniProt P31751).
T2 construct: SureFire assays to detect cellular p-Akt1, p-Akt2 and p-Akt3 levels in WM115 cells (Akt2/3) and LNCaP cells (Akt1); endogenous in cells; host or cells: WM115 (ECACC 91061232), insulin-stimulated
T2 sequence (P31751 whole entry): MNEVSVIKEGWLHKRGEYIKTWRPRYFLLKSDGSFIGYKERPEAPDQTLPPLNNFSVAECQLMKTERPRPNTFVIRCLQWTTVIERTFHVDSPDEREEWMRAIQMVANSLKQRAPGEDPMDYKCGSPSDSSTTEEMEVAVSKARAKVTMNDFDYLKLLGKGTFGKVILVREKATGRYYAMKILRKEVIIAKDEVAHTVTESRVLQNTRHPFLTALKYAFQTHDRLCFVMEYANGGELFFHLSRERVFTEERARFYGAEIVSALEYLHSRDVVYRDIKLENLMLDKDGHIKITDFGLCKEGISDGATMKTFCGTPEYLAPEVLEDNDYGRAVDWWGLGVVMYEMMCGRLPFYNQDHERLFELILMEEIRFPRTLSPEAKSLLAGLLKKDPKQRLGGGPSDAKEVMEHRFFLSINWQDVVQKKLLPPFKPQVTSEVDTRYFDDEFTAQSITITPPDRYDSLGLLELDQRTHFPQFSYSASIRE
As to the kind of experiment: Phospho-Akt cellular SureFire assay, p-Akt2 in WM115 cells. It counts as cell-based. The note with it: insulin stimulated, read-out: Biological Assay 2 IC50 (nM) Akt2 WM115.
Excerpt: as §1, §2
(§6) Custom kit from TGR/Perkin Elmer for Akt2/3 containing anti-(pThr308)Akt antibody and biotinylated anti-mouse capture antibody.
Total Akt2 antibody (NEB UK, 5239)
(§7) WM115 cells (ECACC, 91061232) cultured in MEM culture media (M2279) supplemented with 2 mM L-glutamine (G7513), 1% non-essential amino acids (M7145), 1% sodium pyruvate (S8636) and 10% FBS (F0804)
as §3, §4, §5

In a further test the target is T3, Akt3 (Homo sapiens, UniProt Q9Y243).
T3 construct: unspecified tag, removed (detagged) (cleaved yes); purchased SignalChem and Proteros (Akt3); Merck Millipore (PDK1) 14-452 (PDK1); none given for Akt3
T3 sequence (Q9Y243 whole entry): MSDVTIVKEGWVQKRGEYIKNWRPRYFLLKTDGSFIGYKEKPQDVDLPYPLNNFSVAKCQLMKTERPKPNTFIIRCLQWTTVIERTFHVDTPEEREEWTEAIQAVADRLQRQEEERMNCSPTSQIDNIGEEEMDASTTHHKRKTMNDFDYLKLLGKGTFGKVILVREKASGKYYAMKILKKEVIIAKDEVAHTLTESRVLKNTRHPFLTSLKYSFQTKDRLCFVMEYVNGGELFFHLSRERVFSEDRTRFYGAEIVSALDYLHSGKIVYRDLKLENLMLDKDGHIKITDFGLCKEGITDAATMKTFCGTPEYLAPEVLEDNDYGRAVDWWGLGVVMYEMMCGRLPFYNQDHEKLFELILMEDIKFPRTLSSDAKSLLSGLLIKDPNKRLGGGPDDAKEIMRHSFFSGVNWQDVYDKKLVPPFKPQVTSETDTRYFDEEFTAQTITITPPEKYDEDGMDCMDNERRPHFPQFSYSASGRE
As to the kind of experiment: Akt activation assay (PDK1-mediated activation, LANCE Ultra crosstide TR-FRET), Akt3. The conditions noted are these: read-out: Biological Assay 1 IC50 (nM) Akt3. Format: biochemical. In a few lines: (§8)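 This TR-FRET readout (Eu-anti-phospho-crosstide antibody, 665/615 nm) measured PDK1-driven activation of Akt. Compound was first preincubated with each Akt isoform: Akt1 5 nM; Akt2 15 nM SignalChem or 5 nM Proteros; Akt3 3 nM SignalChem or 5 nM Proteros. Reactions then ran 30 min with 5 nM PDK1, lipid vesicles containing 0.55 µM PtdIns(3,4,5)P3, 100 µM ATP and 100 nM crosstide at pH 7.5, and IC50 came from a 4-parameter equation.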
(In general: In TR-FRET formats the signal depends on donor and acceptor labels being close together.)

Another test has as its target T4, Akt2 (Homo sapiens, UniProt P31751).
T4 construct: unspecified tag, removed (detagged) (cleaved yes); purchased SignalChem and Proteros (Akt2); Merck Millipore (PDK1) 14-452 (PDK1); none given for Akt2
As to the kind of experiment: Akt activation assay (PDK1-mediated activation, LANCE Ultra crosstide TR-FRET), Akt2. It counts as biochemical. The conditions noted are these: read-out: Biological Assay 1 IC50 (nM) Akt2. In a few lines: as §8

The next test has as its target T5, p-Akt3 in WM115 cells (Homo sapiens, UniProt Q9Y243).
T5 construct: SureFire assays to detect cellular p-Akt1, p-Akt2 and p-Akt3 levels in WM115 cells (Akt2/3) and LNCaP cells (Akt1); endogenous in cells; host or cells: WM115 (ECACC 91061232), insulin-stimulated
As to the kind of experiment: Phospho-Akt cellular SureFire assay, p-Akt3 in WM115 cells. Format: cell-based. The note with it: insulin stimulated, read-out: Biological Assay 2 IC50 (nM) Akt3 WM115.
Excerpt: as §1, §2, §6
Total Akt3 antibody (R&D Systems MAB 1463)
as §7, §3, §4, §5

For the next test, the target named is T6, Akt1 (Homo sapiens, UniProt P31749).
T6 construct: unspecified tag, removed (detagged) (cleaved yes); purchased SignalChem and Proteros (Akt1); Merck Millipore (PDK1) 14-452 (PDK1); none given for Akt1
T6 sequence (P31749 whole entry): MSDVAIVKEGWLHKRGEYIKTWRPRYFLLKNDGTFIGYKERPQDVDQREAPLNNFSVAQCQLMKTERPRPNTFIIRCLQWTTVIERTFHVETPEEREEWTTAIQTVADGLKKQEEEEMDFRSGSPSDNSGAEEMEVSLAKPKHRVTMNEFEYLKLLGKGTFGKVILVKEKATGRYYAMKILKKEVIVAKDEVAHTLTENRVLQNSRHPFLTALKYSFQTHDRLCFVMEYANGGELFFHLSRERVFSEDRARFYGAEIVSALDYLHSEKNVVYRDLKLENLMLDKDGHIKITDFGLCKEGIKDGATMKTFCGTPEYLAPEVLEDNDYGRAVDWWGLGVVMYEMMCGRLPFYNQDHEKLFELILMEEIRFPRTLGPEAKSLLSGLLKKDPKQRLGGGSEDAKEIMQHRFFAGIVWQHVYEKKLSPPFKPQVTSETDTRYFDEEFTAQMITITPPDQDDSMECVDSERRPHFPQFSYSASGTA
As to the kind of experiment: Akt activation assay (PDK1-mediated activation, LANCE Ultra crosstide TR-FRET), Akt1. The conditions noted are these: read-out: Biological Assay 1 IC50 (nM) Akt1. Format: biochemical. In a few lines: as §8

These results are taken from US10336702B2, “Pharmaceutically active compounds” (BERGENBIO ASA, priority 2015, dated 2019).

Where only a bound is given, the exact number is not on record here.

As usually defined, the IC50 is the concentration needed to halve the response being measured.

T5 sequence (Q9Y243 whole entry): as the sequence (Q9Y243 whole entry) above
T1 sequence (P31749 whole entry): as the sequence (P31749 whole entry) above
T4 sequence (P31751 whole entry): as the sequence (P31751 whole entry) above

For `CC(=O)N[C@H]1CC[C@H](C(C)C(=O)Nc2cnc(-c3ccc(C4(N)CCC4)cc3)c(-c3ccccc3)c2)CC1` (relative stereo) [Example 41, 2-(trans-4-acetamidocyclohexyl)-N-(6-(4-(1-aminocyclobutyl)phenyl)-5-phenylpyridin-3-yl)propanamide], the IC50 at p-Akt1 in LNCaP cells was over 30000 nM; on p-Akt2 in WM115 cells it was 1500 nM; on Akt3 it was 170 nM; at Akt2, 240 nM; on p-Akt3 in WM115 cells it was 130 nM.

With `COC(=O)N(C)[C@H]1CC[C@H](C(C)C(=O)Nc2cnc(-c3ccc(C4(N)CCC4)cc3)c(-c3ccccc3)c2)CC1` (relative stereo) [Example 54, Methyl (trans-4-(1-((6-(4-(1-aminocyclobutyl)phenyl)-5-phenylpyridin-3-yl)amino)-1-oxopropan-2-yl)cyclohexyl)(methyl)carbamate], the IC50 at p-Akt1 in LNCaP cells is over 21000 nM; on p-Akt2 in WM115 cells, 6400 nM; on Akt3, 280 nM; at Akt2, 970 nM; at p-Akt3 in WM115 cells, 240 nM.

As for `CC(C)(N)c1ccc(-c2ncc(NC(=O)C[C@H]3CC[C@H](N4CCCCC4=O)CC3)cc2-c2ccccc2)cc1` [Example 28, N-(6-(4-(2-aminopropan-2-yl)phenyl)-5-phenylpyridin-3-yl)-2-(trans-4-(2-oxopiperidin-1-yl)cyclohexyl)acetamide], the half-inhibitory concentration (IC50) on p-Akt1 in LNCaP cells was over 30000 nM; at Akt3, 440 nM; on Akt2, 7000 nM; on Akt1, over 30000 nM; at p-Akt3 in WM115 cells it was 260 nM.

On to `CC(=O)N(C)[C@H]1CC[C@H](CC(=O)Nc2cc(-c3ccccc3)c(-c3ccc(C4(N)CCC4)cc3)cn2)CC1` [Example 33, N-(5-(4-(1-aminocyclobutyl)phenyl)-4-phenylpyridin-2-yl)-2-(trans-4-(N-methylacetamido)cyclohexyl)acetamide], for which the IC50 at p-Akt1 in LNCaP cells came to 9800 nM; at p-Akt2 in WM115 cells it was 2500 nM; on Akt3, 92 nM; at Akt2 it was 540 nM; at p-Akt3 in WM115 cells it was 100 nM.

Consider `COCCN(C)[C@H]1CC[C@H](CC(=O)Nc2cnc(-c3ccc(C4(N)CCC4)cc3)c(-c3ccsc3)c2)CC1` [Example 39, N-(6-(4-(1-aminocyclobutyl)phenyl)-5-(thiophen-3-yl)pyridin-3-yl)-2-(trans-4-((2-methoxyethyl)(methyl)amino)cyclohexyl)acetamide], for which the IC50 at p-Akt1 in LNCaP cells was over 14000 nM; on p-Akt2 in WM115 cells it was 4200 nM; on Akt3 it was 2300 nM; at Akt2, 3100 nM; on p-Akt3 in WM115 cells, 180 nM.

For the molecule `NC1(c2ccc(-c3ncc(NC(=O)C[C@H]4CC[C@H](N5CCCC5=O)CC4)cc3-c3ccsc3)cc2)CCC1` [Example 48, N-(6-(4-(1-aminocyclobutyl)phenyl)-5-(thiophen-3-yl)pyridin-3-yl)-2-(trans-4-(2-oxopyrrolidin-1-yl)cyclohexyl)acetamide], the IC50 on p-Akt1 in LNCaP cells is over 27000 nM; at p-Akt2 in WM115 cells, 2700 nM; at Akt3, 240 nM; at Akt2, 910 nM; at p-Akt3 in WM115 cells, 110 nM.

On to `COC(=O)N(C)[C@H]1CC[C@H](CC(=O)Nc2cnc(-c3ccc(C4(N)CC4)c(F)c3)c(-c3ccccc3)c2)CC1` [Example 62, Methyl (trans-4-(2-((6-(4-(1-aminocyclopropyl)-3-fluorophenyl)-5-phenylpyridin-3-yl)amino)-2-oxoethyl)cyclohexyl)(methyl)carbamate], for which the IC50 on p-Akt1 in LNCaP cells was over 30000 nM; on Akt3, 170 nM; at Akt2, 2300 nM; on Akt1, over 30000 nM; on p-Akt3 in WM115 cells, 360 nM.

Consider `C[C@]1(O)C[C@@](N)(c2ccc(-c3nnc(NC(=O)C[C@H]4CC[C@H](N5CCOC5=O)CC4)nc3-c3ccccc3F)cc2)C1` [Example 68, N-(6-(4-(trans-1-amino-3-hydroxy-3-methylcyclobutyl)phenyl)-5-(2-fluorophenyl)-1,2,4-triazin-3-yl)-2-(trans-4-(2-oxooxazolidin-3-yl)cyclohexyl)acetamide], for which the concentration for half-maximal inhibition (IC50) at p-Akt1 in LNCaP cells is over 30000 nM; on Akt3 it was 99 nM; at Akt2 it was 860 nM; at Akt1, 6400 nM; on p-Akt3 in WM115 cells, 410 nM.

On to `COC(=O)N(C)[C@H]1CC[C@H](CC(=O)Nc2cc(-c3ccsc3)c(-c3ccc(C4(N)CCC4)cc3)nn2)CC1` [Example 81, Methyl (trans-4-(2-((6-(4-(1-aminocyclobutyl)phenyl)-5-(thiophen-3-yl)pyridazin-3-yl)amino)-2-oxoethyl)cyclohexyl)(methyl)carbamate], for which the IC50 on p-Akt1 in LNCaP cells is over 27000 nM; at p-Akt2 in WM115 cells it was 4300 nM; at Akt3 it was 59 nM; at Akt2, 1300 nM; at p-Akt3 in WM115 cells, 120 nM.

With `CC(C)C(=O)N(C)[C@H]1CC[C@H](CC(=O)Nc2cc(-c3ccccc3)c(-c3ccc([C@]4(N)C[C@](C)(O)C4)cc3)cn2)CC1` [Example 85, N-(trans-4-(2-((5-(4-(trans-1-amino-3-hydroxy-3-methylcyclobutyl)phenyl)-4-phenylpyridin-2-yl)amino)-2-oxoethyl)cyclohexyl)-N-methylisobutyramide], the IC50 on p-Akt1 in LNCaP cells is 4700 nM; at p-Akt2 in WM115 cells, 600 nM; at Akt3 it was 13 nM; on Akt2, 77 nM; on p-Akt3 in WM115 cells it was 20 nM.

Regarding `COC(=O)N(C)[C@H]1CC[C@H](CC(=O)Nc2cc(-c3ccccc3)c(-c3ccc(C(C)(C)N)cc3)cn2)CC1` [Example A48, Methyl (trans-4-(2-((5-(4-(2-aminopropan-2-yl)phenyl)-4-phenylpyridin-2-yl)amino)-2-oxoethyl)cyclohexyl)(methyl)carbamate], the figures for the IC50 at p-Akt1 in LNCaP cells, at p-Akt2 in WM115 cells and at p-Akt3 in WM115 cells were over 30000 nM, over 30000 nM and 1700 nM, respectively.

Turning to `COC(=O)N(C)[C@H]1CC[C@H](CC(=O)Nc2cc(-c3ccccc3)c(-c3ccc(C4(N)CC4)cc3)nn2)CC1` [Example A77, Methyl (trans-4-(2-((6-(4-(1-aminocyclopropyl)phenyl)-5-phenylpyridazin-3-yl)amino)-2-oxoethyl)cyclohexyl)(methyl)carbamate], the IC50 is over 30000 nM on p-Akt1 in LNCaP cells; 22 nM at Akt3; 590 nM on Akt2; over 25000 nM at Akt1; 240 nM on p-Akt3 in WM115 cells.
